# Results: paper PMC11220654, “A Frog Skin‐Derived Peptide Targeting SCD1 Exerts Radioprotective Effects Against Skin Injury by Inhibiting STING‐Mediated Inflammation” (Advanced Science, 2024)
# Residues, ends and D or L forms follow the SMILES beside them. No end group written: not given here. *: point of attachment. Cbz = O=C(OCc1ccccc1)*
# How the values were obtained:
# [1] = test system: TBK1 in HaCaT cells; assay: TBK1 protein level and ubiquitination (Western blotting, IP); type: cell-based, human
# Text: Here, we further explored whether and how RIFSP‐2 decreased the protein level of TBK1 in HaCaT cells. […] Since the degradation of TBK1 protein was reported to be regulated by either ubiquitination mediated proteasome pathway^[ [33] ^] or chaperone‐mediated autophagy signaling,^[ [34] ^] we testified the influence of the protein synthesis inhibitor (CHX) and the proteasome inhibitor (MG132) in RIFSP‐2 treated HaCaT cells. […] Then we analyzed the colocalization of TBK1 and lysosomes through confocal immunofluorescence microscopy assays. Although, administration of RIFSP‐2 induced a transient decrease of TBK1 fluorescence intensity (Figure S5K,L, Supporting Information), the co‐localization assays didn't support the increase of TBK1 location in lysosomes in RIFSP‐2 treated HaCaT cells (Figure S5M, Supporting Information).
# Fig. S5 Influence of RIFSP-2 on STING activation and TBK1 expression in HaCaT […]
# Communities classified based on the association network of the different metabolites in irradiated cells treated with or without RIFSP -2. (B) Structural character analysis of the lipid metabolites in irradiated cells treated with or without RIFSP -2. (C) Dose dependent induction of phosphorylation of STING and downstream TBK1 detected through western blotting. […] (M) Pearson correlation coefficient was calculated through Image J to explore the colocalization between TBK1 and […]
# [2] = test system: WS1 cells; assay: Intracellular uptake of FITC-labeled peptides (confocal microscopy, flow cytometry); type: cell-based
# Text: (§1) Distinct from previous reports, the RIFSPs were obtained from skin tissue crude extracts but not from skin secretions. In addition, the administration of exogenous RIFSPs protected cultured skin cells, which hints that some RIFSPs may exert membrane permeability. Therefore, we synthesized FITC‐labeled RIFSPs‐2/5/9/10 and evaluated their possible intracellular uptake by skin cells. […] Glycosaminoglycans have been reported to affect the efficiency of cellular uptake of a wide range of cell penetrating peptides,^[ [27] ^] and we therefore used the competitive inhibitor heparin to investigate whether internalization of FITC‐RIFSP‐2 was dependent on recognition by glycosaminoglycans on the cell surface.
# After forming electrostatic interactions with the plasma membrane, peptides principally penetrate into cells via macropinocytosis.^[ [28] ^] […]
# (A) Administration of FITC-labeled RIFSPs to WS1 cells and identification of the membrane […] of RIFSP-2 through confocal microscopy. (B)Time- and dose-dependent uptake of FITC-RIFSP-2 by WS1 cells detected through confocal microscopy and flow cytometry analysis. […] Conditioned medium from WS1 cells pretreated with RIFSP-2 increased MMP of irradiated HaCaT cells and vice versa, detected by JC-1(G and H) and Mito-Tracker Red CMXRos (I) staining (n = 4, ** P < 0.01).
# [3] = test system: HaCaT cells; assay: as above; type: cell-based
# Text: as §1
# Figure 2 Macropinocytosis‐mediated uptake of radiation‐induced frog skin peptide 2 (RIFSP‐2) protects skin cells against radiation‐induced injury. […] B) Time‐ and dose‐dependent uptake of FITC‐RIFSP‐2 by HaCaT cells detected through flow cytometry analysis. […] The effect of RIFSP‐2 on D) cell proliferation, E) cell cycle, and F,G) senescence, as detected by colony formation assay, propidium iodide (PI) staining and SA‐β‐Gal staining analysis, respectively. […] M) Effect of RIFSP‐2 on the homeostasis of actin filaments in irradiated skin cells, as detected by rhodamine phalloidin and G‐actin staining assays. […]
# [4] = test system: skin tissues of mice; conditions: mouse, in vivo, sc
# [5] = test system: STING signaling in HaCaT cells; assay: STING downstream signals and inflammatory factors with LPC (18:1) (Western blotting, ELISA); type: cell-based, human
# Procedure: Since RIFSP‐2 directly restrained SCD1 and modulated neutral lipid droplets, we further investigated whether alteration of lipid profiles by RIFSP‐2 interfered with STING activation in response to irradiation. […] Furthermore, we investigated the influence of RIFSP‐2 on STING‐regulated inflammatory factors, including IFN‐β, TNF‐α, IL‐1, and IL‐6. […] Nevertheless, significant increase of IFN‐β production in acute stage and TNF‐α production in relative late stage (48 h) in macrophage cells were detected through both Western blotting and ELISA assays (Figure 4F,G).
# 2.6 Protein-protein interaction analysis
# The identified databases of specific binding proteins for RIFSP-2 and STING in irradiated skin cells were merged and the confidence score of interactions >0.7 were regarded as high confidence in alinement of STRING database. Finally, the visualization of this protein-protein interaction was realized through the Cytoscape software.
# 2.7 Assessment of cytokines by Elisa
# HaCaT and RAW264.7 cells were cultivated in 6 cm plates at a density of 5 × 10^5 cells/mL with 2 mL medium per well and treated with LPC (18:1) plus RIFSP-2 for 24 h. 6 or 48 h after irradiation, cytokine concentrations in the […] were measured by ELISA according to the instructions provided by the manufacturer (NEOBIOSCIENCE). The absorbance was detected using a BioTek reader (Synergy HTX, Winooski, USA) at 450 nm. […]
compound,measurement,setting,value
"CCN(CC)CCCC(C)Nc1ccnc2cc(Cl)ccc12 (stereo not drawn) [CQ, chloroquine]",influence on TBK1 degradation caused by RIFSP-2,"[1]; 10 nM chloroquine 4 hours, then 15 µM RIFSP-2 24 hours",little influence of lysosomes in TBK1 degradation
"C=C1[C@@H](C)[C@H]2[C@H](Cc3ccccc3)NC(=O)[C@]23[C@H](OC(C)=O)/C=C/[C@@](C)(O)C(=O)[C@@H](C)C/C=C/[C@H]3[C@@H]1O [CytD, cytochalasin D]",effect on WS1 cells,[2]; after CytD administration in the uptake study,swelled and subsequently died in 30 min
CC(C)C[C@@H](C=O)NC(=O)[C@H](CC(C)C)NC(=O)[C@H](CC(C)C)NC(=O)OCc1ccccc1 [MG132] (Cbz-Leu-Leu-Leu-aldehyde),influence on the reduction of TBK1 protein level by RIFSP-2,"[1]; 24 h after RIFSP-2 treatment (15 µM), MG132 10 µM pretreated 2 hours",abrogated the reduction of TBK1 protein level
LAAGGYDVDKNNSRLK [RIFSP‐2],uptake in HaCaT cells,[3],time‐ and dose‐dependent manner
same,adverse effects,[4],did not cause obvious adverse effects
same,histological examination of the skin tissues,[4],no significant differences
same,time at which the FITC signal could be detected,[2],as soon as one hour after administration
LPC (18:1),"accumulation of TGF-β, TNF-α, IL-1 and IL-6","[5]; keratinocytes but not macrophage cells, Western blotting",aggravated the accumulation
same,phosphorylation of STING and TBK1,"[5]; supplementation, dose-dependent manner (Figure S5C)",elevated the phosphorylation of both STING and its substrate TBK1
